# Experimental data: patent US20230339988A1, “Metal Complexes Of Macrocycles And/Or Isoprenoids And/Or Linear Tetrapyrroles By Mechanochemistry (Grinding Or Milling), Preparation Method Thereof, Sunscreen/Concealer/UV Absorber Thereof, Self-Assembled Coating Material Thereof, Superamphiphilic Material Or Surfaces Thereof, Hair Dyeing Thereof …” (priority 2019, published 2023)
# Test: Solubility in carbon disulfide
# Format: physicochemical
# Conditions: test tube
# Text: Carbon disulfide is a non-polar solvent which is commonly used as solvent for metal complexes.
# It is clear that all of the reactants reacted by this mechanochemical process. The mechanochemical reaction promotes a chemical change.
compound,measurement,value
COc1cc(/C=C/C(=O)CC(=O)/C=C/c2ccc(O)c(OC)c2)ccc1O [Curcumin],solubility in carbon disulfide,completely soluble
